Here are results for one compound from US20220000117A1, “METHOD FOR CONTROLLING DISEASES IN SMALL GRAIN CEREALS, SEED OF SMALL GRAIN CEREALS, AND METHOD FOR SUPPRESSING LODGING DAMAGE IN SMALL GRAIN CEREALS” (KUMIAI CHEMICAL INDUSTRY CO., LTD., priority 2019, published 2022).

One assay concerns septoria leaf blotch. Description: Test Example 7: control test of septoria leaf blotch of wheat, field, wheat variety TRAPEZ. It counts as in vivo, Septoria tritici. To be noted: for Degree of Disease Occurrence: flag leaves, 219 days after seeding. The protocol:
(§1) Degree of Disease Occurrence=Σ(Index×Number of Leaves of Index)/(4×Number of Investigated Leaves)×100 (1)
Seed of wheat (variety: TRAPEZ) was used. On seed having a mass of 1 kg, 20 ml of suspension water containing 0.5 g or 5 g of dichlobentiazox or isotianil was sprayed. In Examples 16, 17, and 18, the seed treated with the chemical was stripe-sown with a ratio of 100 kg/ha. In contrast, in Comparative Example 17, seed which had not treated with dichlobentiazox or isotianil was sown in a field in the same manner, and a spray solution corresponding to that obtained by suspending 750 g of chlomthalonil (commercial FUNGISTOP was used, “FUNGISTOP” is a registered trademark) in 200 liters of water per 1 ha was sprayed on foliage of wheat 154 days and 184 days after seeding. The severity of disease occurrence of septoria leaf blotch in flag leaves of 25 stems was investigated 219 days after seeding according to the criteria in Table 1, and the degree of disease occurrence was calculated by the above calculation formula (1).

Another assay has as its system powdery mildew. Description: Test Example 5: control test of wheat powdery mildew, field, wheat variety Haruyutaka. The format is in vivo, Blumeria graminis. The note with it: for Degree of Disease Occurrence / Disease Leaf Rate (%): leaves just below flag leaves, 85 days after seeding. The method, then:
as §1
Seed of wheat (variety: Haruyutaka) sterilized in advance with commercial Benlate T wettable powder 20 (“Benlate” is a registered trademark) was used. In Examples 12, 13, and 14, seed having a mass of 1 kg was mixed into 50 ml of suspension water containing 2.5 g or 1.25 g of dichlobentiazox or 50 ml of suspension water containing 2.5 g of isotianil, air-dried, and then, stripe-sown in a field with a furrow width of 30 cm and a ratio of 100 kg/ha (300 seeds/m^2). Moreover, in Comparative Example 14, seed having a mass of 1 kg was mixed into 50 ml of suspension water containing 2.5 g of tiadinil (commercial V-GET flowable was used, “V-GET” is a registered trademark), air-dried, and then, stripe-sown in a field with a furrow width of 30 cm and a ratio of 100 kg/ha (300 seeds/m^2). The presence or absence of disease occurrence and a lesion area ratio of powdery mildew in leaves just below hag leaves (next leaves) of 30 stems were investigated 85 days after seeding by according to the criteria in Table 1, and a disease leaf rate and the degree of disease occurrence were calculated by the above calculation formula(1).

The mark [1] stands for this setting: Seed Treatment 1.25 g/Seed 1 kg (printed: 250 g/ha).
[2] abbreviates: Seed Treatment 2.5 g/Seed 1 kg (250 g/ha).

Take `O=S1(=O)N=C(OCc2snc(Cl)c2Cl)c2ccccc21` [Compound (1), Dichlobentiazox]: the “Degree of Disease Occurrence” value is 2.8 with septoria leaf blotch (Seed Treatment 0.5 g/Seed 1 kg (50 g/ha)), 1.9 in the assay with septoria leaf blotch (Seed Treatment 5 g/Seed 1 kg (500 g/ha)), 0.8 in the assay on powdery mildew (setting [1]) and 0.4 in the assay with powdery mildew (setting [2]). Moreover, the “disease occurrence of septoria leaf blotch, seed treatment compared with foliage spraying of chlorothalonil” value with septoria leaf blotch (seed treatment) is “more suppressed”. Further, the “Disease Leaf Rate (%)” value with powdery mildew (setting [1]) is recorded as 4.4%; in the assay with powdery mildew (setting [2]), 2.2%. In the assay on powdery mildew (seed treatment), the “disease occurrence of powdery mildew, seed treatment compared with seed treatment with tiadinil” value is listed as “suppresses the disease occurrence of powdery mildew lower”.
